Among the data in PubChem BioAssay (NCI) are GI50 and TGI values, retold here.

Among the test systems are SK-MEL-5 melanoma; NCI-H226 lung; LOX IMVI melanoma; UACC-257 melanoma; UO-31 renal; SK-OV-3 ovarian; CAKI-1 renal; NCI-H522 lung.
Common to all, as to experiment: NCI-60 cell line screen, 48 h

Molecules are shown by their SMILES. “And” between values parts separate entries of the source, which are not always exact repeats. Equal entries are not always repeated.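 Step 1: Grow cells in 96-well plates. Step 2: Expose to compound for 48 hours at 5 concentrations. Step 3: Interpolate endpoints linearly; if unreached, use highest concentration. At the GI50, growth is halved. TGI: concentration producing complete growth inhibition.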 Where only a bound is given, the exact number is not on record here.

On to `COc1cc(/C=C\c2cc(OC)c(OC)c(OC)c2)cc(N/C=C\C(=O)c2ccc(OC(F)(F)F)cc2)c1OC`, for which the GI50 in the test on SK-MEL-5 melanoma was 3.74 µM; in the test with NCI-H226 lung it was 19.9 µM; in the test with LOX IMVI melanoma it was 5.95 µM; in the test on UACC-257 melanoma it was 43.3 µM; in the test on UO-31 renal it was 5.42 µM; in the test on SK-OV-3 ovarian it was 5.38 µM. Besides, the GI50 was 4.96 µM in the test on CAKI-1 renal and 1.96 µM with NCI-H522 lung. The TGI in the test with SK-MEL-5 melanoma, in the test on NCI-H226 lung, in the test on LOX IMVI melanoma, in the test on UACC-257 melanoma, with UO-31 renal and with SK-OV-3 ovarian was greater than 100 µM in each case. Besides, the TGI is greater than 100 µM in the test on CAKI-1 renal and 6.19 µM with NCI-H522 lung.
Turning to `CCCCCCCCCCCCOC1C(CNC(=O)C2OC3OC(C)(C)OC3C2NC(=O)Nc2ccc(CC(=O)OC)cc2)OC2OC(C)(C)OC21` (configuration not stated), the GI50 was greater than 100 µM in the test with SK-MEL-5 melanoma; greater than 100 µM in the test on NCI-H226 lung; 47.7 µM in the test with LOX IMVI melanoma; greater than 100 µM in the test on UACC-257 melanoma; greater than 100 µM in the test with UO-31 renal; greater than 100 µM with SK-OV-3 ovarian. For the same compound, the GI50 with CAKI-1 renal is 47 µM; in the test on NCI-H522 lung, greater than 100 µM. Also, the TGI with SK-MEL-5 melanoma, in the test on NCI-H226 lung, with LOX IMVI melanoma, with UACC-257 melanoma, in the test with UO-31 renal and with SK-OV-3 ovarian was greater than 100 µM each time. Also, the TGI with CAKI-1 renal and in the test on NCI-H522 lung was greater than 100 µM each time.
As for `CC1=CC(=O)C2=C(C)CCC3C(C)C(=O)OC3C12` (configuration not stated), the TGI with SK-MEL-5 melanoma, in the test on NCI-H226 lung, in the test on LOX IMVI melanoma, in the test with UACC-257 melanoma, in the test on UO-31 renal and in the test with SK-OV-3 ovarian was greater than 100 µM in each case. The TGI in the test with CAKI-1 renal and in the test on NCI-H522 lung was greater than 100 µM in each case.
In the case of `COc1ccc(C(c2cc(OC)c(OC)c(OC)c2)n2ccnc2)cc1O` (configuration not stated), the GI50 is 0.367 µM in the test on SK-MEL-5 melanoma; 0.64 µM with NCI-H226 lung; 0.525 µM in the test with LOX IMVI melanoma; 1.44 µM in the test on UACC-257 melanoma; 0.883 µM in the test with UO-31 renal; 0.465 µM in the test on SK-OV-3 ovarian. Further, the GI50 in the test with CAKI-1 renal was 0.68 µM; in the test on NCI-H522 lung, 0.247 µM. Besides, the TGI in the test on SK-MEL-5 melanoma is 3.18 µM; with NCI-H226 lung, greater than 100 µM; in the test with LOX IMVI melanoma, greater than 100 µM; in the test on UACC-257 melanoma, greater than 100 µM; in the test on UO-31 renal, greater than 100 µM; with SK-OV-3 ovarian it was greater than 100 µM. For the same compound, the TGI is greater than 100 µM in the test on CAKI-1 renal and 0.76 µM in the test with NCI-H522 lung.
As for `COc1ccc(/C=C(/C#N)C(N)=O)c(OC)c1`, the TGI in the test with SK-MEL-5 melanoma is greater than 100 µM; with NCI-H226 lung, greater than 100 µM; in the test on LOX IMVI melanoma it was greater than 100 µM; in the test on UACC-257 melanoma, greater than 100 µM; in the test with UO-31 renal, 26.8 µM; in the test on SK-OV-3 ovarian it was greater than 100 µM. Moreover, the TGI with CAKI-1 renal and in the test with NCI-H522 lung was greater than 100 µM each time.
With `COc1ccc(C2=N[C@@H](Cc3ccccc3)C(=O)Nc3ccsc32)cc1`, the GI50 was 3.26 µM in the test on SK-MEL-5 melanoma; 11.2 µM with NCI-H226 lung; 6.48 µM with LOX IMVI melanoma; 11.6 µM in the test with UACC-257 melanoma; 8.7 µM in the test with UO-31 renal; 4.56 µM in the test with SK-OV-3 ovarian. Also, the GI50 in the test on CAKI-1 renal is 3.87 µM; with NCI-H522 lung it was 2.71 µM. Also, the TGI in the test on SK-MEL-5 melanoma turned out to be 12.1 µM; with NCI-H226 lung, 42 µM; in the test with LOX IMVI melanoma it was 22 µM; in the test on UACC-257 melanoma it was 36.7 µM; in the test on UO-31 renal, 34.6 µM; in the test with SK-OV-3 ovarian it was 17.3 µM. Also, the TGI in the test on CAKI-1 renal is 33.8 µM; in the test with NCI-H522 lung it was 8.98 µM.
`O=Nc1ccc(O)c(=O)cc1`: the GI50 in the test with SK-MEL-5 melanoma was 3.63 µM; in the test on NCI-H226 lung, 2.5 µM; in the test on LOX IMVI melanoma, 2.16 µM; in the test with UACC-257 melanoma, 2.26 µM; in the test on UO-31 renal it was 1.15 µM; in the test on SK-OV-3 ovarian it was 16.2 µM. Moreover, the GI50 in the test with CAKI-1 renal is 0.936 µM; in the test with NCI-H522 lung, 0.141 µM. Also, the TGI with SK-MEL-5 melanoma was 10.6 µM; in the test with NCI-H226 lung, 8.64 µM; in the test on LOX IMVI melanoma it was 7.67 µM; in the test on UACC-257 melanoma, 7.86 µM; in the test with UO-31 renal it was 2.69 µM; in the test with SK-OV-3 ovarian, 37.3 µM. The TGI in the test on CAKI-1 renal came out at 5.8 µM; in the test with NCI-H522 lung, 0.524 µM.
For the compound `Nc1nccc(-c2c(-c3ccc(F)cc3)ncn2C2CCNCC2)n1`, the GI50 in the test on SK-MEL-5 melanoma is 1.74 µM and 4.23 µM; in the test with NCI-H226 lung, 1.27 µM and 3.97 µM; in the test on LOX IMVI melanoma, 2.84 µM and 2.33 µM; in the test with UACC-257 melanoma it was 10.2 µM and 3.45 µM; in the test with UO-31 renal, 10.9 µM and 3.04 µM; with SK-OV-3 ovarian it was 3.34 µM and 5.45 µM. Further, the GI50 is > 25 µM and 7.29 µM with CAKI-1 renal; 6.98 µM and 2.04 µM in the test on NCI-H522 lung. For the same compound, the TGI in the test with SK-MEL-5 melanoma is greater than 19.9 µM; in the test with NCI-H226 lung, > 21.2 µM and 20.1 µM; in the test on LOX IMVI melanoma it was greater than 25 µM; with UACC-257 melanoma, > 25 µM and 17.6 µM; in the test with UO-31 renal, > 25 µM and 17.4 µM; in the test with SK-OV-3 ovarian it was greater than 25 µM. Further, the TGI in the test with CAKI-1 renal is greater than 25 µM; in the test with NCI-H522 lung it was > 25 µM and 7.22 µM.
